Results taken from patent EP0250755A2, “Fluorine derivatives of vitamin D3 and process for producing the same” (SUMITOMO PHARMACEUTICALS COMPANY, LIMITED, priority 1986, dated 1988).

Columns and labels:
vitamin D-deficient rats [1] = assay: Bone calcium mobilization response (serum calcium, OCPC method) in vitamin D-deficient rats; format: in vivo; conditions: intrajugular, 24 hours after administration, Mean ± SD (N = 4 ~ 6)
Protocol: Blood was collected after 24 hours, and the concentration of calcium in serum was determined by the OCPC (orthocresolphthalein complexon) method.

[2] = system: human premyeloblast leukemia cells (HL-60); assay: Proliferation-suppression rate of HL-60 cells (Coulter counter, 4 days cultivation); format: cell-based; conditions: 96 h, HL-60, 4 days; for inhibition at 0.1 ng/mL: Concn. 0.1 ng/mL; for inhibition at 1 ng/mL: Concn. 1 ng/mL; for inhibition at 10 ng/mL: Concn. 10 ng/mL
Protocol: An HL-60 cell fluid adjusted to a concentration of 5 x 10^4 cells/ml was incorporated with each of the agents to be tested and cultivated in a carbon dioxide incubator at 37°C for 4 days. After the cultivation, the number of cells was measured by means of a Coulter counter. The percentage of the number thus measured relative to the number of cells in an untreated group was calculated, from which the proliferation-suppression rate was obtained.

vitamin D-deficient rats [3] = assay: Intestinal calcium transport response (method of Martin and DeLuca) in vitamin D-deficient rats; format: in vivo; conditions: intrajugular, 24 hours after administration, Mean ± SD (N = 4 ~ 6)
[4] = system: human premyeloblast leukemia cells (HL-60); assay: NBT reduction (differentiation of HL-60 cells into macrophages); format: cell-based; conditions: HL-60, 4 days, control 0.5
Protocol: Thereafter, the cells were smeared onto a slide glass, subjected to Giemsa staining, and the coloration of the cells was examined under a microscope. The number of cells containing intracellular blue-black formazan deposits was measured for 200 cells, and the results were expressed in terms of the percentage of NBT reduction-positive cells.

[5] = dose 50 pmol/100 g body wt., control 4.8 ± 0.29
[6] = dose 650 pmol/100 g body wt., control 4.8 ± 0.31
[7] = dose 50 pmol/100 g body wt., control 2.6 ± 0.27
[8] = dose 650 pmol/100 g body wt., control 2.5 ± 0.30

Compound | Serum calcium (vitamin D-deficient rats [1]; [5]) [mg/100 ml] | Serum calcium (vitamin D-deficient rats [1]; [6]) [mg/100 ml] | inhibition at 0.1 ng/mL [2] [%] | inhibition at 1 ng/mL [2] [%] | inhibition at 10 ng/mL [2] [%] | Intestinal calcium transport (Ca [S/M]) (vitamin D-deficient rats [3]; [7]) | Intestinal calcium transport (Ca [S/M]) (vitamin D-deficient rats [3]; [8]) | NBT reduction rate ([4]; Concn. 0.1 µg/ml) [%] | NBT reduction rate ([4]; Concn. 1 µg/ml) [%] | NBT reduction rate ([4]; Concn. 10 µg/ml) [%]
C=C1/C(=C\C=C2/CCC[C@]3(C)[C@@H]([C@H](C)CCCC(C)(C)O)CC[C@@H]23)C[C@@H](O)C[C@@H]1O [1α,25-(OH)2D3, 1α,25-Dihydroxyvitamin D3, reference compound] | 5.5 ± 0.30 | 8.5 ± 0.59 | 6.2 | 36.1 | 72.4 | 3.4 ± 0.72 Ca [S/M] | 3.6 ± 0.52 Ca [S/M] | 1.0 | 16.5 | 56.5
C=C1/C(=C\C=C2/CCC[C@]3(C)[C@@H]([C@H](C)C[C@H](O)CC(O)(C(F)(F)F)C(F)(F)F)CC[C@@H]23)C[C@@H](O)C[C@@H]1O [Compound 28b, 23(S)-26,26,26,27,27,27-hexa-fluoro-1α,23,25-trihydroxyvitamin D3] |  | 5.6 ± 0.60 | 22.8 | 67.3 | 86.9 |  | 5.7 ± 1.92 Ca [S/M] | 2.0 | 60.0 | 81.0
C=C1/C(=C\C=C2/CCC[C@]3(C)[C@@H]([C@H](C)CCC(=O)C(O)(C(F)(F)F)C(F)(F)F)CC[C@@H]23)C[C@@H](O)C[C@@H]1O [Compound 10, la,25-dihydroxy-26,26,26,27,27,27-hexafluoro-24-oxovitamin D3] | 6.5 ± 0.40 |  | 45.9 | 78.6 | 89.9 | 6.5 ± 1.92 Ca [S/M] |  | 12.5 | 46.0 | 82.5
C=C1/C(=C\C=C2/CCC[C@]3(C)[C@@H]([C@H](C)CC[C@H](O)C(O)(C(F)(F)F)C(F)(F)F)CC[C@@H]23)C[C@@H](O)C[C@@H]1O [Compound 6a, 24(S)-26,26,26,27,27,27-hexa-fluoro-la,24,25-trihydroxyvitamin D3] |  |  | 30.7 | 74.9 | 83.7 |  |  | 8.0 | 55.0 | 86.0
C=C1/C(=C\C=C2/CCC[C@]3(C)[C@@H]([C@H](C)CC[C@@H](O)C(O)(C(F)(F)F)C(F)(F)F)CC[C@@H]23)C[C@@H](O)C[C@@H]1O [Compound 6b, 24(R)-26,26,26,27,27,27-hexafluoro-1α,24,25-trihydroxyvitamin-D3] | 6.3 ± 0.55 |  | 50.2 | 84.7 | 90.4 | 8.9 ± 2.81 Ca [S/M] |  | 32.0 | 79.5 | 83.5
C=C1/C(=C\C=C2/CCC[C@]3(C)[C@@H]([C@H](C)C[C@@H](O)CC(O)(C(F)(F)F)C(F)(F)F)CC[C@@H]23)C[C@@H](O)C[C@@H]1O [Compound 28a, 23(R)-26,26,26,27,27,27-hexa-fluoro-1α,23,25-trihydroxyvitamin D3] |  | 7.2 ± 0.67 | 19.8 | 76.4 | 92.2 |  | 6.3 ± 1.88 Ca [S/M] | 6.5 | 60.5 | 80.0
